In PubChem BioAssay (NCI):
Where “and” joins values, the source holds several entries; their conditions need not be identical. Equal entries are not always repeated.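 96-well plates; 48 h exposure; 5 concentrations. Endpoints by linear interpolation between flanking doses. Not reached: highest tested concentration assigned. GI50 marks 50% less growth. At the TGI there is no net growth.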

Each compound was assayed on LOX IMVI melanoma (assay: inhibition of tumour cell growth, NCI panel, 48 h).
With `CCN1CCCC(NCc2c3ccccc3c(CNC3CCCN(CC)C3)c3ccccc23)C1` (stereo not drawn) the TGI was 22.3 µM.
In the case of `COc1c(O)c2c3c(c(C)cc(O)c3c1O)C(=O)C(O)(C(C)(C)C(C)=O)C2=O` (stereo not drawn), the GI50 is reported as 33 µM and 67.6 µM and the TGI is reported as > 100 µM.
With `Nc1nc(N)c(N=O)c(Nc2ccc(Br)cc2)n1` the TGI was 66.5 µM.
For `O=C(CNc1c(Cl)cccc1Cl)NC1C=Cc2ccc(S(=O)(=O)Nc3c(Cl)cccc3Cl)cc2C1=O` (stereo not drawn), the TGI was > 100 µM.
In the case of `O=C(Oc1cc(=O)c(OC(=O)c2ccccc2)co1)c1ccccc1`, the TGI is reported as > 100 µM.
In the case of `CCC1=CC2CN3Cn4c(c(COCc5c6n(c7ccccc57)CN5CC7C=C(CC)C5C6(C(=O)OC)C7)c5ccccc54)C(C(=O)OC)(C2)C13`, the TGI is reported as > 100 µM.

These compounds were tested on MALME-3M melanoma (assay: inhibition of tumour cell growth, NCI panel, 48 h).
For `Cn1ccnc1C(O)(c1nccn1C)c1nccn1C`, the TGI was > 100 µM.
With `CC12CCC3C(CCC4CC(OC(=O)Cc5ccc(N(CCCl)CCCl)cc5)CCC43C)C1CCC(=O)N2` (stereo not drawn) the TGI was 32.9 µM.
With `CCN(CC)CCCNC(=O)c1ccc([N+](=O)[O-])cc1O` the TGI was > 100 µM.
For `CN(Cc1ccccc1)c1cc(=O)n(C)c(=O)[nH]1`, the TGI was > 100 µM.
For `COc1cc2c(cc1OC)[C@H]1CN3CCC[C@H]3C=C1c1ccc(OC)c(O)c1-2`, the TGI was 0.00179 µM.
`Cc1cn([C@@H]2C[C@H](CO)[C@@H](O)C2)c(=O)[nH]c1=O` was tested, and the TGI was > 100 µM.
In the case of `C=Cc1ccc(C)[n+](C[Si](C)(C)O[Si](C)(C)C[n+]2cc(C=C)ccc2C)c1`, the TGI is reported as > 100 µM.
For `Oc1[nH]c2ccc(Br)cc2c1N=NC(=S)Nc1ccc(F)cc1`, the TGI was 23.8 µM.
With `O=c1[nH]cnc(NC2C=C(CO)C(O)C2O)c1[N+](=O)[O-]` (stereo not drawn) the TGI was > 100 µM.
With `O=C(NC(COC(=O)C(Cc1ccccc1)NC(=O)c1ccccc1)Cc1ccccc1)c1ccccc1` (stereo not drawn) the TGI was > 50 µM.
For `CC(=O)OCC1OC(n2cc(I)c(=O)[nH]c2=O)C(OC(C)=O)C(OC(C)=O)C1OC(C)=O` (stereo not drawn), the TGI was > 100 µM.
In the case of `CC(O)CCCOC(c1ccccc1)(c1ccccc1)c1ccccc1` (stereo not drawn), the TGI is reported as 27.8 µM.
For `Cc1ccc([N+](=O)[O-])cc1N=NC(=O)NNc1cc([N+](=O)[O-])ccc1C`, the TGI was > 100 µM.
For `CC(C(=O)N1C(=O)N(C(=O)C(C)C(O)c2ccccc2)C2CCCCC21)C(O)c1ccccc1` (stereo not drawn), the TGI was > 100 µM.
In the case of `O=C1NCCS(=O)(=O)N[C@@H](CC2=CC=CCC2)C(=O)N2CCCC12` (stereo partly drawn), the TGI is reported as > 100 µM.
In the case of `CC(C)=CCC/C(C)=C/COC(C)(C)C1=CCC(C)CC1` (stereo not drawn) (tested in a mixture with another compound), the TGI is reported as > 100 µM.
In the case of `O=[N+]([O-])c1ccc(/C=C/c2cc(-c3ccccc3)nc3ccc4ccccc4c23)cc1`, the TGI is reported as > 100 µM.
`Cc1cc(-c2nc3ccccc3s2)ccc1NC(=O)[C@@H](N)CCCCN` showed a TGI of 34.8 µM.
With `CCCCn1cnc2c(c(CC#N)nn2-c2ccccc2)c1=N` the TGI was > 100 µM.
For `COc1ccc(-c2oc(/C=N/NC(N)=S)c([N+](=O)[O-])c2-c2ccc(OC)c(OC)c2)cc1OC`, the TGI was 35.9 µM.
`CCN1CCCC(NCc2c3ccccc3c(CNC3CCCN(CC)C3)c3ccccc23)C1` (stereo not drawn) was tested, and the TGI was 40.9 µM.
For `COc1c(O)c2c3c(c(C)cc(O)c3c1O)C(=O)C(O)(C(C)(C)C(C)=O)C2=O` (stereo not drawn), the TGI was > 100 µM.
`Nc1nc(N)c(N=O)c(Nc2ccc(Br)cc2)n1` was tested, and the TGI was 44.6 µM.
With `O=C(CNc1c(Cl)cccc1Cl)NC1C=Cc2ccc(S(=O)(=O)Nc3c(Cl)cccc3Cl)cc2C1=O` (stereo not drawn) the TGI was > 100 µM.
Compound `C[C@]12CC[C@@H]3c4ccc(O)cc4CC[C@H]3[C@@H]1C/C(=C\c1ccncc1)[C@@H]2O` has a TGI of 30.9 µM.
With `S=C(/N=c1\sc(Nc2ccc(Cl)cc2)nc2sc3c(c12)CCN(N1CCc2c(sc4nc(Nc5ccc(Cl)cc5)s/c(=N\C(=S)Nc5ccc(Cl)cc5)c24)C1)C3)Nc1ccc(Cl)cc1` the TGI was > 100 µM.
In the case of `O=C(Oc1cc(=O)c(OC(=O)c2ccccc2)co1)c1ccccc1`, the TGI is reported as > 100 µM.
For `CCC1=CC2CN3Cn4c(c(COCc5c6n(c7ccccc57)CN5CC7C=C(CC)C5C6(C(=O)OC)C7)c5ccccc54)C(C(=O)OC)(C2)C13`, the TGI was > 100 µM.
In the case of `COc1ccc(CC2c3c(cc(OC)c(OC)c3OC)CCN2C)cc1OC` (stereo not drawn), the TGI is reported as > 100 µM.

The compounds below were run on NCI-H522 lung (assay: inhibition of tumour cell growth, NCI panel, 48 h).
With `Cn1ccnc1C(O)(c1nccn1C)c1nccn1C` the TGI was > 100 µM.
`CC12CCC3C(CCC4CC(OC(=O)Cc5ccc(N(CCCl)CCCl)cc5)CCC43C)C1CCC(=O)N2` (stereo not drawn) showed a TGI of 28.3 µM.
With `CCN(CC)CCCNC(=O)c1ccc([N+](=O)[O-])cc1O` the TGI was > 100 µM.
In the case of `CN(Cc1ccccc1)c1cc(=O)n(C)c(=O)[nH]1`, the TGI is reported as > 100 µM.
With `COc1cc2c(cc1OC)[C@H]1CN3CCC[C@H]3C=C1c1ccc(OC)c(O)c1-2` the TGI was 0.000856 µM.
With `Cc1cn([C@@H]2C[C@H](CO)[C@@H](O)C2)c(=O)[nH]c1=O` the TGI was > 100 µM.
With `C=Cc1ccc(C)[n+](C[Si](C)(C)O[Si](C)(C)C[n+]2cc(C=C)ccc2C)c1` the TGI was > 100 µM.
In the case of `Oc1[nH]c2ccc(Br)cc2c1N=NC(=S)Nc1ccc(F)cc1`, the TGI is reported as 38 µM.
In the case of `O=c1[nH]cnc(NC2C=C(CO)C(O)C2O)c1[N+](=O)[O-]` (stereo not drawn), the TGI is reported as > 100 µM.
`CCOC(=O)C1(C(=O)OCC)COS(=O)OC1` was tested, and the TGI was 2.1 µM.
`O=C(NC(COC(=O)C(Cc1ccccc1)NC(=O)c1ccccc1)Cc1ccccc1)c1ccccc1` (stereo not drawn) was tested, and the TGI was > 50 µM.
For `CC(=O)OCC1OC(n2cc(I)c(=O)[nH]c2=O)C(OC(C)=O)C(OC(C)=O)C1OC(C)=O` (stereo not drawn), the TGI was > 100 µM.
For `CC(O)CCCOC(c1ccccc1)(c1ccccc1)c1ccccc1` (stereo not drawn), the TGI was 26.8 µM.
For `Cc1ccc([N+](=O)[O-])cc1N=NC(=O)NNc1cc([N+](=O)[O-])ccc1C`, the TGI was 29.7 µM.
In the case of `CC(C(=O)N1C(=O)N(C(=O)C(C)C(O)c2ccccc2)C2CCCCC21)C(O)c1ccccc1` (stereo not drawn), the TGI is reported as > 100 µM.
With `O=C1NCCS(=O)(=O)N[C@@H](CC2=CC=CCC2)C(=O)N2CCCC12` (stereo partly drawn) the TGI was > 100 µM.
For `CC(C)=CCC/C(C)=C/COC(C)(C)C1=CCC(C)CC1` (stereo not drawn) (tested in a mixture with another compound), the TGI was > 100 µM.
